According to patent US20250145633A1, “SUBSTITUTED FURANOPYRIMIDINE COMPOUNDS AS PDE1 INHIBITORS” (Dart NeuroScience, LLC, priority 2017, published 2025):

Target: human PDE1B enzyme (Homo sapiens (Human), UniProt Q01064)
Assay: IMAP TR-FRET PDE1B enzymatic assay
Format: biochemical
Settings: negative log of half-maximal molar inhibitory concentration, 200 nM FAM-cAMP, values given as bins; for IC50: read-out: PDE1b (pIC50) (converted)
How it was run: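 Full-length GST-tagged human PDE1B (250 pg/well) in IMAP BSA buffer with 10 U/ml calmodulin and 2.5 mM CaCl2; compound pre-incubated 5 min at room temperature, then 200 nM (final) FAM-cAMP for 30 min. IMAP binding reagent/Tb added, 1 h; TR-FRET 520/490 ratio read. IC50 from sigmoidal dose-response fit.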

Row | Structure (SMILES) | IC50 | PDE1b (pIC50)
1 | Cc1oc2ncnc(NC3(C)CC3)c2c1C(=O)N(C)C [Example 81, N,N,6-Trimethyl-4-[(1-methylcyclopropyl)amino]furo[2,3-d]pyrimidine-5-carboxamide] | 100 to 1000 nM | 
2 | CCNC(=O)c1c(C)oc2ncnc(NC3(C)CC3)c12 [Example 82, N-Ethyl-6-methyl-4-[(1-methylcyclopropyl)amino]furo[2,3-d]pyrimidine-5-carboxamide] | 10 to 100 nM | 
3 | Cc1oc2ncnc(NC3(C)CC3)c2c1C(=O)NC1COC1 [Example 83, 6-Methyl-4-[(1-methylcyclopropyl)amino]-N-(oxetan-3-yl)furo[2,3-d]pyrimidine-5-carboxamide] | 100 to 1000 nM | 
4 | Cc1oc2ncnc(NC3(C)CC3)c2c1C(=O)N1CCC(C)(c2ccc(F)cc2)C1 (stereo not shown) [Example 85, 5-[3-(4-Fluorophenyl)-3-methylpyrrolidine-1-carbonyl]-6-methyl-N-(1-methylcyclopropyl)furo[2,3-d]pyrimidin-4-amine] |  | >8
5 | Cc1oc2ncnc(NC3(C)CC3)c2c1C(=O)NC1(C(F)(F)F)CC1 [Example 86, 6-Methyl-4-[(1-methylcyclopropyl)amino]-N-[1-(trifluoromethyl)cyclopropyl]furo[2,3-d]pyrimidine-5-carboxamide] | 10 to 100 nM | 
6 | Cc1oc2ncnc(NC3(C)CC3)c2c1C(=O)NCc1ccc(C#N)c(F)c1 [Example 87, N-[(4-Cyano-3-fluorophenyl)methyl]-6-methyl-4-[(1-methylcyclopropyl)amino]furo[2,3-d]pyrimidine-5-carboxamide] | 10 to 100 nM | 
7 | Cc1oc2ncnc(NC3(C)CC3)c2c1C(=O)NCc1ccc(F)c(C#N)c1 [Example 88, N-[(3-Cyano-4-fluorophenyl)methyl]-6-methyl-4-[(1-methylcyclopropyl)amino]furo[2,3-d]pyrimidine-5-carboxamide] |  | >8
8 | Cc1oc2ncnc(NC3(C)CC3)c2c1C(=O)NC1(C)CC1 [Example 89, 6-Methyl-N-(1-methylcyclopropyl)-4-[(1-methylcyclopropyl)amino]furo[2,3-d]pyrimidine-5-carboxamide] | 10 to 100 nM | 
9 | Cc1oc2ncnc(NC3(C)CC3)c2c1C(=O)NCC1COC1 [Example 90, 6-Methyl-4-[(1-methylcyclopropyl)amino]-N-(oxetan-3-ylmethyl)furo[2,3-d]pyrimidine-5-carboxamide] | 100 to 1000 nM | 
10 | Cc1oc2ncnc(NC3(C)CC3)c2c1C(=O)NC1(C#N)CCC1 [Example 91, N-(1-Cyanocyclobutyl)-6-methyl-4-[(1-methylcyclopropyl)amino]furo[2,3-d]pyrimidine-5-carboxamide] | 10 to 100 nM | 
11 | Cc1oc2ncnc(NC3(C)CC3)c2c1C(=O)NCc1ccon1 [Example 92, 6-Methyl-4-[(1-methylcyclopropyl)amino]-N-(1,2-oxazol-3-ylmethyl)furo[2,3-d]pyrimidine-5-carboxamide] | 10 to 100 nM | 
12 | Cc1oc2ncnc(NC3(C)CC3)c2c1C(=O)NCC1(C)COC1 [Example 93, 6-Methyl-4-[(1-methylcyclopropyl)amino]-N-[(3-methyloxetan-3-yl)methyl]furo[2,3-d]pyrimidine-5-carboxamide] | 10 to 100 nM | 
13 | Cc1oc2ncnc(NC3(C)CC3)c2c1C(=O)NCC1(F)COC1 [Example 94, N-[(3-Fluorooxetan-3-yl)methyl]-6-methyl-4-[(1-methylcyclopropyl)amino]furo[2,3-d]pyrimidine-5-carboxamide] | 100 to 1000 nM | 
14 | COCCNC(=O)c1c(C)oc2ncnc(NC3(C)CC3)c12 [Example 95, N-(2-Methoxyethyl)-6-methyl-4-[(1-methylcyclopropyl)amino]furo[2,3-d]pyrimidine-5-carboxamide] | 100 to 1000 nM | 
15 | Cc1oc2ncnc(NC3(C)CC3)c2c1C(=O)NCCN1CCOCC1 [Example 96, 6-Methyl-4-[(1-methylcyclopropyl)amino]-N-[2-(morpholin-4-yl)ethyl]furo[2,3-d]pyrimidine-5-carboxamide] | 10 to 100 nM | 
16 | Cc1nc(CNC(=O)c2c(C)oc3ncnc(NC4(C)CC4)c23)cs1 [Example 97, 6-M ethyl-N-[(2-methyl-1,3-thiazol-4-yl)methyl]-4-[(1-methylcyclopropyl)amino]furo[2,3-d]pyrimidine-5-carboxamide] | 10 to 100 nM | 
17 | Cc1oc2ncnc(NC3(C)CC3)c2c1C(=O)NCc1ccc[nH]1 [Example 98, 6-Methyl-4-[(1-methylcyclopropyl)amino]-N-(1H-pyrrol-2-ylmethyl)furo[2,3-d]pyrimidine-5-carboxamide] | 10 to 100 nM | 
18 | Cc1oc2ncnc(NC3(C)CC3)c2c1C(=O)NCc1ccn(C)n1 [Example 99, 6-Methyl-N-[(1-methyl-1H-pyrazol-3-yl)methyl]-4-[(1-methylcyclopropyl)amino]furo[2,3-d]pyrimidine-5-carboxamide] | 10 to 100 nM | 
19 | Cc1oc2ncnc(NC3(C)CC3)c2c1C(=O)NCc1cocn1 [Example 100, 6-Methyl-4-[(1-methylcyclopropyl)amino]-N-(1,3-oxazol-4-ylmethyl)furo[2,3-d]pyrimidine-5-carboxamide] | 10 to 100 nM | 

Row | Structure (SMILES) | IC50 | PDE1b (pIC50)
20 | Cc1oc2ncnc(NC3(C)CC3)c2c1C(=O)N1CC(O)(c2ccc(F)cc2)C1 [Example 101, 3-(4-Fluorophenyl)-1-{6-methyl-4-[(1-methylcyclopropyl)amino]furo[2,3-d]pyrimidine-5-carbonyl}azetidin-3-ol] |  | >8
21 | Cc1oc2ncnc(NC3(C)CC3)c2c1C(=O)NCc1ccnn1C [Example 102, 6-Methyl-N-[(1-methyl-1H-pyrazol-5-yl)methyl]-4-[(1-methylcyclopropyl)amino]furo[2,3-d]pyrimidine-5-carboxamide] | 10 to 100 nM | 
22 | COC1(c2ccccc2)CN(C(=O)c2c(C)oc3ncnc(NC4(C)CC4)c23)C1 [Example 103, 5-(3-Methoxy-3-phenylazetidine-1-carbonyl)-6-methyl-N-(1-methylcyclopropyl)furo[2,3-d]pyrimidin-4-amine] |  | >8
23 | Cc1oc2ncnc(NC3(C)CC3)c2c1C(=O)NC1(C)CCC1 [Example 104, 6-Methyl-N-(1-methylcyclobutyl)-4-[(1-methylcyclopropyl)amino]furo[2,3-d]pyrimidine-5-carboxamide] | 10 to 100 nM | 
24 | Cc1oc2ncnc(NC3(C)CC3)c2c1C(=O)NC1(C)COC1 [Example 105, 6-Methyl-4-[(1-methylcyclopropyl)amino]-N-(3-methyloxetan-3-yl)furo[2,3-d]pyrimidine-5-carboxamide] | 10 to 100 nM | 
25 | Cc1oc2ncnc(NC3(C)CC3)c2c1C(=O)NC1CCOC1 (stereo not shown) [Example 106, 6-Methyl-4-[(1-methylcyclopropyl)amino]-N-(oxolan-3-yl)furo[2,3-d]pyrimidine-5-carboxamide] | 10 to 100 nM | 
26 | Cc1oc2ncnc(NC3(C)CC3)c2c1C(=O)NC1(C)CCOC1 (stereo not shown) [Example 107, 6-Methyl-4-[(1-methylcyclopropyl)amino]-N-(3-methyloxolan-3-yl)furo[2,3-d]pyrimidine-5-carboxamide] | 10 to 100 nM | 
27 | Cc1oc2ncnc(NC3(C)CC3)c2c1C(=O)NC1CCOCC1 [Example 108, 6-Methyl-4-[(1-methylcyclopropyl)amino]-N-(oxan-4-yl)furo[2,3-d]pyrimidine-5-carboxamide] | 10 to 100 nM | 
28 | Cc1oc2ncnc(NC3(C)CC3)c2c1C(=O)NC1(C)CCOCC1 [Example 109, 6-Methyl-4-[(1-methylcyclopropyl)amino]-N-(4-methyloxan-4-yl)furo[2,3-d]pyrimidine-5-carboxamide] | 10 to 100 nM | 
29 | Cc1oc2ncnc(NC3(C)CC3)c2c1C(=O)NC1CCOC(C)(C)C1 (stereo not shown) [Example 110, N-(2,2-Dimethyloxan-4-yl)-6-methyl-4-[(1-methylcyclopropyl)amino]furo[2,3-d]pyrimidine-5-carboxamide] | 10 to 100 nM | 
30 | Cc1oc2ncnc(NC3(C)CC3)c2c1C(=O)NCc1cccn1C [Example 111, 6-Methyl-N-[(1-methyl-1H-pyrrol-2-yl)methyl]-4-[(1-methylcyclopropyl)amino]furo[2,3-d]pyrimidine-5-carboxamide] | 10 to 100 nM | 
31 | Cc1nc(CNC(=O)c2c(C)oc3ncnc(NC4(C)CC4)c23)c(C)o1 [Example 112, N-[(Dimethyl-1,3-oxazol-4-yl)methyl]-6-methyl-4-[(1-methylcyclopropyl)amino]furo[2,3-d]pyrimidine-5-carboxamide] | 10 to 100 nM | 
32 | Cc1cc(CNC(=O)c2c(C)oc3ncnc(NC4(C)CC4)c23)no1 [Example 113, 6-Methyl-N-[(5-methyl-1,2-oxazol-3-yl)methyl]-4-[(1-methylcyclopropyl)amino]furo[2,3-d]pyrimidine-5-carboxamide] | 10 to 100 nM | 
33 | Cc1oc2ncnc(NC3(C)CC3)c2c1C(=O)N[C@H]1[C@@H]2COC[C@@H]21 [Example 114, 6-Methyl-4-[(1-methylcyclopropyl)amino]-N-[(1R,5S,6R)-3-oxabicyclo[3.1.0]hexan-6-yl]furo[2,3-d]pyrimidine-5-carboxamide] | 10 to 100 nM | 
34 | Cc1oc2ncnc(NC3(C)CC3)c2c1C(=O)NCc1cncn1C [Example 115, 6-Methyl-N-[(1-methyl-1H-imidazol-5-yl)methyl]-4-[(1-methylcyclopropyl)amino]furo[2,3-d]pyrimidine-5-carboxamide] | 100 to 1000 nM | 
35 | Cc1oc2ncnc(NC3(C)CC3)c2c1C(=O)NCc1cn(C)cn1 [Example 116, 6-Methyl-N-[(1-methyl-1H-imidazol-4-yl)methyl]-4-[(1-methylcyclopropyl)amino]furo[2,3-d]pyrimidine-5-carboxamide] | 10 to 100 nM | 
36 | Cc1oc2ncnc(NC3(C)CC3)c2c1C(=O)N1CCOCC1 [Example 117, 6-Methyl-N-(1-methylcyclopropyl)-5-(morpholine-4-carbonyl)furo[2,3-d]pyrimidin-4-amine] | 100 to 1000 nM | 
37 | Cc1oc2ncnc(NC3(C)CC3)c2c1C(=O)N1CCOC(c2ccccn2)C1 (stereo not shown) [Example 118, 6-Methyl-N-(1-methylcyclopropyl)-5-[2-(pyridin-2-yl)morpholine-4-carbonyl]furo[2,3-d]pyrimidin-4-amine] | 10 to 100 nM | 
